Laboratory results taken from paper PMC12336439 (Archiv Der Pharmazie, 2025).
Where “and” joins values, the source holds several entries; their conditions need not be identical. Equal values may be shown once. Entries after “also recorded” stand apart in the source; their conditions may differ.

Columns and labels:
Format in all cases: binding
[1] = target: T1, USP7 (Homo sapiens, UniProt Q93009); assay: Differential scanning fluorimetry (DSF), melting temperature shift of USP7; conditions: 8 µM protein, 250 µM compound (1:31.25)
T1 construct: USP7 catalytic domain (USP7CD) (208‐560); made in house
T1 sequence (Q93009 with tags, fused parts or gaps): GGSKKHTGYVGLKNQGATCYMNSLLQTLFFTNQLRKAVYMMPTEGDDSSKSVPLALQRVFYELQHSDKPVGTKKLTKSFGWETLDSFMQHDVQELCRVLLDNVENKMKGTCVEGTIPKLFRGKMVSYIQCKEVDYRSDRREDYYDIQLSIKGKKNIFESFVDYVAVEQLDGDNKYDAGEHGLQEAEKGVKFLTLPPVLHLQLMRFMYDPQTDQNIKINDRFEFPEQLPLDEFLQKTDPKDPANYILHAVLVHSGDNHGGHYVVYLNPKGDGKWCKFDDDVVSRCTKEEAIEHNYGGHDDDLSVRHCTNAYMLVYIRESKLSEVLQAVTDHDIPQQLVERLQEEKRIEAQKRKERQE
Source text: The influence of the synthesized compounds on the melting temperature (T m) of USP7 and its mutant USP7asoc (active site only cysteine) was investigated by DSF. USP7asoc only retains the catalytic Cys223 while all the other six cysteines are mutated to serine. DSF was selected for initial assessment since it is an efficient and rapid primary screening method readily available to our lab.
An important consideration when assessing covalent inhibitors is the time dependence of covalent target occupancy and thus potency, which is determined by the reaction kinetics of the covalent binding event. To allow for drawing conclusions on compounds with slower reaction kinetics, incubation times of 30 min, 4 h, and 24 h at 20°C were chosen for the DSF screen with USP7 (Table 1 and Figures 2 and 3). The threshold at which compounds were considered (de‐)stabilizers was defined at 0.5°C. In parallel, the intrinsic reactivity of a set of representative compounds was evaluated in a glutathione reactivity assay. […] Data obtained from the GSH reactivity studies are shown in Supporting Information S2: Table S2.1 and Figures S2.1–2.3.
The melting temperatures of USP7 and USP7asoc in the presence or absence of fragments were determined by DSF on a Qiagen Rotor‐Q Model‐5‐Plex HRM real‐time PCR instrument (Qiagen, Hilden, Germany). SYPRO Orange (Life Technologies Corporation, Eugene, OR, USA) was used as a fluorescent dye at a final concentration of 5x. The protein concentration was 8 µM, and the final compound concentration was 250 µM, corresponding to a protein‐to‐compound ratio of 1:31.25. All compounds were dissolved in dimethyl sulfoxide (DMSO) and the proteins in Tris buffer (25 mM Tris pH 8.0, 150 mM NaCl, 5 mM TCEP, 5% (v/v) DMSO). All measurements were performed after 30 min, 4 h, and 24 h of incubation and at least in triplicate. DSF experiments were carried out with a constant heating rate of 270°C/h. The temperature was ramped from 28°C to 60°C–70°C with excitation and emission filters set at 470 nm and 610 nm, respectively. The melting temperatures (T m) of USP7 and USP7asoc were determined from the maxima of the first derivatives of the melting curves in OriginPro2020 (OriginLab, Northampton, MA, USA). The ∆T m was calculated by subtraction of the T m of the protein sample with pure DMSO from the T m of the protein sample mixed with compound. Error propagation was used to average multiple runs for a compound. A compound was considered to be a hit if the shift in the ∆T m was at least 0.50°C [55].

[2] = target: T2, USP7asoc (active site only cysteine) (Homo sapiens, UniProt Q93009, C300S/C315S/C334S/C478S/C488S/C510S); assay: Differential scanning fluorimetry (DSF), melting temperature shift of USP7asoc mutant; conditions: 8 µM protein, 250 µM compound (1:31.25)
T2 construct: (208‐560, C300/315/334/448/478/510S); made in house
T2 sequence (Q93009 with tags, fused parts or gaps C300S/C315S/C334S/C478S/C488S/C510S): as the sequence (Q93009 with tags, fused parts or gaps) above, with C96S, C111S, C130S, C274S, C284S, C306S counted along it
Protocol: USP7asoc only retains the catalytic Cys223 while all the other six cysteines are mutated to serine. DSF was selected for initial assessment since it is an efficient and rapid primary screening method readily available to our lab. […] An important consideration when assessing covalent inhibitors is the time dependence of covalent target occupancy and thus potency, which is determined by the reaction kinetics of the covalent binding event. To allow for drawing conclusions on compounds with slower reaction kinetics, incubation times of 30 min, 4 h, and 24 h at 20°C were chosen for the DSF screen with USP7 (Table 1 and Figures 2 and 3). The threshold at which compounds were considered (de‐)stabilizers was defined at 0.5°C. In parallel, the intrinsic reactivity of a set of representative compounds was evaluated in a glutathione reactivity assay. […] The expression and purification of USP7 catalytic domain (USP7CD) (208‐560) and USP7asoc (active site only cysteine) by using a pET24a(+)_HLT_USP7 construct were performed as previously described. […] For the USP7asoc, six of the seven cysteines are mutated to serines (208‐560, C300/315/334/448/478/510S). All utilized protein sequences are depicted in Supporting Information S2: Table S.3.1. The melting temperatures of USP7 and USP7asoc in the presence or absence of fragments were determined by DSF on a Qiagen Rotor‐Q Model‐5‐Plex HRM real‐time PCR instrument (Qiagen, Hilden, Germany). SYPRO Orange (Life Technologies Corporation, Eugene, OR, USA) was used as a fluorescent dye at a final concentration of 5x. The protein concentration was 8 µM, and the final compound concentration was 250 µM, corresponding to a protein‐to‐compound ratio of 1:31.25. All compounds were dissolved in dimethyl sulfoxide (DMSO) and the proteins in Tris buffer (25 mM Tris pH 8.0, 150 mM NaCl, 5 mM TCEP, 5% (v/v) DMSO). All measurements were performed after 30 min, 4 h, and 24 h of incubation and at least in triplicate. DSF experiments were carried out with a constant heating rate of 270°C/h. The temperature was ramped from 28°C to 60°C–70°C with excitation and emission filters set at 470 nm and 610 nm, respectively. The melting temperatures (T m) of USP7 and USP7asoc were determined from the maxima of the first derivatives of the melting curves in OriginPro2020 (OriginLab, Northampton, MA, USA). The ∆T m was calculated by subtraction of the T m of the protein sample with pure DMSO from the T m of the protein sample mixed with compound. Error propagation was used to average multiple runs for a compound. A compound was considered to be a hit if the shift in the ∆T m was at least 0.50°C [55].

[3] = target: T1, USP7; assay: Intact protein MS (UHPLC-ESI-MS), covalent modification of USP7; conditions: 24 h incubation at 20°C, protein-to-compound ratio 1:31.25
Protocol: The DSF results described above were validated by UHPLC‐ESI‐MS to verify possible covalent binding through a corresponding mass shift. Intact protein MS is an important screening method in irreversible‐covalent hit identification and is especially suitable for covalent fragment‐based drug discovery (FBDD). It allows for the identification of covalent binders by detecting covalent protein‐compound adducts, thus making use of the stability of the covalent bond.
USP7 was prepared in Tris buffer (25 mM Tris pH 8.0, 150 mM NaCl, 5 mM TCEP) with a protein‐to‐compound ratio of 1:31.25 and 5% (v/v) DMSO. The protein‐compound mixtures were all incubated at 20°C for 24 h on a rotating shaker. The analysis of intact protein mass was carried out using UHPLC‐ESI‐MS measurements, with data acquisition and data analysis as previously described.

[4] = target: T3, USP7asoc (Homo sapiens, UniProt Q93009, C300S/C315S/C334S/C478S/C488S/C510S); assay: Intact protein MS (UHPLC-ESI-MS), covalent modification of USP7asoc; conditions: 24 h incubation at 20°C, protein-to-compound ratio 1:31.25
T3 construct: (208‐560, C300/315/334/448/478/510S); made in house
T3 sequence (Q93009 with tags, fused parts or gaps C300S/C315S/C334S/C478S/C488S/C510S): as the sequence (Q93009 with tags, fused parts or gaps) above, with C96S, C111S, C130S, C274S, C284S, C306S counted along it
Protocol: The DSF results described above were validated by UHPLC‐ESI‐MS to verify possible covalent binding through a corresponding mass shift. Intact protein MS is an important screening method in irreversible‐covalent hit identification and is especially suitable for covalent fragment‐based drug discovery (FBDD). It allows for the identification of covalent binders by detecting covalent protein‐compound adducts, thus making use of the stability of the covalent bond. USP7 was prepared in Tris buffer (25 mM Tris pH 8.0, 150 mM NaCl, 5 mM TCEP) with a protein‐to‐compound ratio of 1:31.25 and 5% (v/v) DMSO. The protein‐compound mixtures were all incubated at 20°C for 24 h on a rotating shaker. The analysis of intact protein mass was carried out using UHPLC‐ESI‐MS measurements, with data acquisition and data analysis as previously described.

Compound	∆T m ± SD USP7 ([1]; 30 min incubation at 20°C)	∆T m ± SD USP7asoc ([2]; 30 min incubation at 20°C)	∆T m ± SD USP7asoc ([2]; 4 h incubation at 20°C)	protein species in deconvoluted mass spectrum of USP7 [3]	protein species in deconvoluted mass spectrum of USP7asoc [4]	∆T m ± SD USP7 ([1]; 4 h incubation at 20°C)	∆T m ± SD USP7 ([1]; 24 h incubation at 20°C)	∆T m ± SD USP7asoc ([2]; 24 h incubation at 20°C)
O=[N+]([O-])c1ccc(F)nc1Nc1cc2c(-c3cnn(CCO)c3)cccc2cn1 [7f, 2‐(4‐{3‐[(6‐Fluoro‐3‐nitropyridin‐2‐yl)amino]isoquinolin‐5‐yl}‐1H‐pyrazol‐1‐yl)ethan‐1‐ol]	0.00 ± 0.12 °C	0.48 ± 0.09 °C	–0.23 ± 0.08 °C	single‐arylated USP7 and USP7asoc as a main signal	single‐arylated USP7 and USP7asoc as a main signal	–	–	–
O=[N+]([O-])c1ccc(F)nc1Nc1cc2c(-c3ccc4ccccc4c3)cccc2cn1 [7g, N‐(6‐Fluoro‐3‐nitropyridin‐2‐yl)‐5‐(naphthalen‐2‐yl)isoquinolin‐3‐amine]	0.10 ± 0.12 °C	0.63 °C and 0.63 ± 0.07 °C	0.25 ± 0.10 °C	mainly displayed the unmodified USP7 and USP7asoc species	mainly displayed the unmodified USP7 and USP7asoc species	0.30 ± 0 °C	0.25 ± 0.09 °C	0.38 ± 0.06 °C
O=[N+]([O-])c1ccc(F)nc1Nc1cc2c(-c3ccc(-c4cccnc4)cc3)cccc2cn1 [7h, N‐(6‐Fluoro‐3‐nitropyridin‐2‐yl)‐5‐[4‐(pyridin‐3‐yl)phenyl]isoquinolin‐3‐amine]	0.00 ± 0.12 °C	0.30 ± 0 °C	0.35 ± 0.09 °C	the unmodified protein species was again dominant; also recorded: unmodified USP7 and USP7asoc as the main peak	the unmodified protein species was again dominant; also recorded: unmodified USP7 and USP7asoc as the main peak	0.15 ± 0 °C	0.20 ± 0.09 °C	0.35 ± 0.04 °C
Cn1ccc(-c2cccc3cnc(Nc4nc(Cl)ccc4[N+](=O)[O-])cc23)c1 [8b, N‐(6‐Chloro‐3‐nitropyridin‐2‐yl)‐5‐(1‐methyl‐1H‐pyrrol‐3‐yl)isoquinolin‐3‐amine]	–	–0.30 ± 0 °C	0.35 ± 0.09 °C	unmodified protein species was dominant with an additional smaller signal of the mono‐arylated species	only showed unmodified protein for USP7asoc	–0.10 ± 0.09 °C	0.15 ± 0.09 °C	0.45 ± 0 °C
CCn1cc(-c2cccc3cnc(Nc4nc(Cl)ccc4[N+](=O)[O-])cc23)cn1 [8c, N‐(6‐Chloro‐3‐nitropyridin‐2‐yl)‐5‐(1‐ethyl‐1H‐pyrazol‐4‐yl)isoquinolin‐3‐amine]	–0.15 ± 0.12 °C	0.05 ± 0.09 °C	0.25 ± 0.12 °C	only unmodified USP7 and USP7asoc were detected with a smaller peak corresponding to the single‐arylated protein species	only unmodified USP7 and USP7asoc were detected with a smaller peak corresponding to the single‐arylated protein species	0.15 ± 0 °C	0.15 ± 0 °C	0.33 ± 0.08 °C
CCCn1cc(-c2cccc3cnc(Nc4nc(Cl)ccc4[N+](=O)[O-])cc23)cn1 [8d, N‐(6‐Chloro‐3‐nitropyridin‐2‐yl)‐5‐(1‐propyl‐1H‐pyrazol‐4‐yl)isoquinolin‐3‐amine]	0.25 ± 0.09 °C	–0.20 ± 0.09 °C	0.45 ± 0.12 °C	unmodified USP7 and USP7asoc were again dominant	unmodified USP7 and USP7asoc were again dominant	0.30 ± 0 °C	0.25 ± 0.09 °C	0.42 ± 0.16 °C
O=[N+]([O-])c1ccc(Cl)nc1Nc1cc2c(-c3cnn(C4CC4)c3)cccc2cn1 [8e, N‐(6‐Chloro‐3‐nitropyridin‐2‐yl)‐5‐(1‐cyclopropyl‐1H‐pyrazol‐4‐yl)isoquinolin‐3‐amine]	–0.40 ± 0.09 °C	–	–	mainly showed signals for unmodified USP7 and USP7asoc	mainly showed signals for unmodified USP7 and USP7asoc	–0.15 ± 0 °C	–0.15 ± 0 °C	–
